The record followed here is ChEMBL document CHEMBL2040784, “Design and synthesis of peptides from bacterial ParE toxin as inhibitors of topoisomerases” (Eur J Med Chem, 2012).

In test [1] the test system is Escherichia coli. Put plainly: Inhibition of Escherichia coli topoisomerase-4-mediated DNA cleavage assessed as relaxation of supercoiled pBR322 at <75 umol/L after 1 hr by gel electrophoresis assay.
For test [2], the system named is Escherichia coli. Put plainly: Inhibition of Escherichia coli DNA gyrase supercoiling activity using relaxed pBR322 DNA after 1 hr by gel electrophoresis assay.
For test [3], the target named is DNA topoisomerase 2-alpha (Homo sapiens) (UniProt P11388). Put plainly: Inhibition of human topoisomerase 2-mediated DNA cleavage assessed as relaxation of supercoiled pBR322 after 1 hr by gel electrophoresis assay.
Chain of DNA topoisomerase 2-alpha (Homo sapiens) (P11388 whole entry): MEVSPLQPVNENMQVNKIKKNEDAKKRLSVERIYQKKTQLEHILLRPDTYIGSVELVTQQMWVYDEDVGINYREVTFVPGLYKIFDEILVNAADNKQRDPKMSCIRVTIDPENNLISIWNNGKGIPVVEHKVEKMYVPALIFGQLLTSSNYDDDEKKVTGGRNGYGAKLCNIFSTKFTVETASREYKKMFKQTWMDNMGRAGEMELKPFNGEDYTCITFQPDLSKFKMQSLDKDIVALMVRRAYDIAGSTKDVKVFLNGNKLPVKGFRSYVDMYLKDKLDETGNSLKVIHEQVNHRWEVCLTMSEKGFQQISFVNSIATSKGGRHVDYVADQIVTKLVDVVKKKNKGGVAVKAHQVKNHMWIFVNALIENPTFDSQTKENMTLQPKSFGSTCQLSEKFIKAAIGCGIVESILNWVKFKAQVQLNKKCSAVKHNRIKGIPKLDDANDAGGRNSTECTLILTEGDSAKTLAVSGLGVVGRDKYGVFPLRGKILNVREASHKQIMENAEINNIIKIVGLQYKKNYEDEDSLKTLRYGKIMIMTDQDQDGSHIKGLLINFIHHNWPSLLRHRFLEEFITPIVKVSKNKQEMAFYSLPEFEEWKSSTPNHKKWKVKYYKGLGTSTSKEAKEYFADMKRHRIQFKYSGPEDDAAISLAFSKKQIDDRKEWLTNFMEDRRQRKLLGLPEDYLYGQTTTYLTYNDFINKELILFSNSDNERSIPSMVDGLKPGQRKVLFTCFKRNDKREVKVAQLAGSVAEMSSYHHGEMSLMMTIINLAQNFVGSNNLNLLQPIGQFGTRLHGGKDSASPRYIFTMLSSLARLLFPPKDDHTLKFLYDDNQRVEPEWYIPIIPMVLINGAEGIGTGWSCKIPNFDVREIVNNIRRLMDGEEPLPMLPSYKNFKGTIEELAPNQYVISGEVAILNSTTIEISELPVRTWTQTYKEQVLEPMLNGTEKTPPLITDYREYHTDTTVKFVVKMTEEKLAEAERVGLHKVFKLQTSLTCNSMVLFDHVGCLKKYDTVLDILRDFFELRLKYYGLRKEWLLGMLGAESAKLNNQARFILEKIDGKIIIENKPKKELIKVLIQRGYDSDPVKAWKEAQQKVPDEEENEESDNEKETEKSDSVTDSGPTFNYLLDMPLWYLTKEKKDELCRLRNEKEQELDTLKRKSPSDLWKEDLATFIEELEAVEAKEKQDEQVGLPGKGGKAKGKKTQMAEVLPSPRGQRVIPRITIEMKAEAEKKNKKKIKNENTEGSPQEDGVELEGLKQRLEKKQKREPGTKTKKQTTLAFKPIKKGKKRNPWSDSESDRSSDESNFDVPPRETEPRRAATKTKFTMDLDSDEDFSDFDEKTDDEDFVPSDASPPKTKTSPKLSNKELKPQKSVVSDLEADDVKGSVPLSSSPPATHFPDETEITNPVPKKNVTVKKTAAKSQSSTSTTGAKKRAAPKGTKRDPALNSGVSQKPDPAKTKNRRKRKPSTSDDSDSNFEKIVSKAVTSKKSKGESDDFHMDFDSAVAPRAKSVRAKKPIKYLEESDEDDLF
In test [4] the test system is Escherichia coli. Kind of test: Inhibition of Escherichia coli topoisomerase-4-mediated DNA cleavage assessed as relaxation of supercoiled pBR322 after 1 hr by gel electrophoresis assay.
Test [5] deals with Escherichia coli. Kind of test: Inhibition of Escherichia coli DNA gyrase supercoiling activity using relaxed pBR322 DNA at 20 umol/L after 1 hr by gel electrophoresis assay.

The source made the active and inactive calls. The calls are words filed in the database; no cut-off is given here. Where a SMILES comes first, the peptide text is derived from it.

For “H-HYVFCLPHGSAPALVVAIFHERMDLMARLSERLNIES-OH”, in the test on Escherichia coli [1], the inhibition (usually the change of the read-out against control, counted positive when it falls) is “inactive”.

Take H-PALVVAIFHERMDLMARLSER-OH: the IC100 was above 20 µmol/L in the test with Escherichia coli [2] and 10 µmol/L with Escherichia coli [4]. The inhibition result in test [3] was “inactive”. In the test on Escherichia coli [5], the inhibition was 93%.

As for `CC[C@H](C)[C@H](NC(=O)[C@H](C)NC(=O)[C@@H](NC(=O)[C@@H](NC(=O)[C@H](CC(C)C)NC(=O)[C@H](C)NC(=O)[C@@H]1CCCN1C(=O)[C@H](C)NC(=O)[C@H](CO)NC(=O)CNC(=O)[C@H](Cc1cnc[nH]1)NC(=O)[C@@H]1CCCN1C(=O)[C@H](CC(C)C)NC(=O)[C@H](CS)NC(=O)[C@H](Cc1ccccc1)NC(=O)[C@@H](NC(=O)[C@H](Cc1ccc(O)cc1)NC(=O)[C@H](Cc1cnc[nH]1)NC(=O)[C@H](Cc1cnc[nH]1)NC(=O)[C@H](CCC(=O)O)NC(=O)[C@H](CS)NC(=O)[C@H](Cc1cnc[nH]1)NC(=O)[C@@H](NC(=O)[C@H](CCSC)NC(=O)[C@H](CCCNC(=N)N)NC(=O)[C@@H](N)CC(C)C)[C@@H](C)CC)C(C)C)C(C)C)C(C)C)C(=O)N[C@@H](Cc1ccccc1)C(=O)O` (H-LRMIHCEHHYVFCLPHGSAPALVVAIF-OH), the inhibition entry in test [3] was “inactive”.

Take `CC[C@H](C)[C@H](NC(=O)[C@H](CCSC)NC(=O)[C@H](CCCNC(=N)N)NC(=O)[C@@H](N)CC(C)C)C(=O)N[C@@H](Cc1cnc[nH]1)C(=O)N[C@@H](CS)C(=O)N[C@@H](CCC(=O)O)C(=O)N[C@@H](Cc1cnc[nH]1)C(=O)N[C@@H](Cc1cnc[nH]1)C(=O)N[C@@H](Cc1ccc(O)cc1)C(=O)N[C@H](C(=O)N[C@@H](Cc1ccccc1)C(=O)N[C@@H](CS)C(=O)N[C@@H](CC(C)C)C(=O)N1CCC[C@H]1C(=O)N[C@@H](Cc1cnc[nH]1)C(=O)NCC(=O)N[C@@H](CO)C(=O)N[C@@H](C)C(=O)O)C(C)C` (H-LRMIHCEHHYVFCLPHGSA-OH): the values for the IC100 (with Escherichia coli [2]; in test [3]; in the test on Escherichia coli [4]) were 50 µmol/L, 50 µmol/L and 25 µmol/L, respectively.
